Consider two compounds from US8952054B2, “Small molecule inhibitors of MUC1 and methods of identifying the same” (Dana-Farber Cancer Institute, Inc., priority 2010, dated 2015).

One assay deals with T1, MUC1-CD (Homo sapiens, UniProt P15941).
T1 construct: the 72 aa cytoplasmic domain (CD); His; made in house
T1 sequence (P15941 1184-1255 limits assumed): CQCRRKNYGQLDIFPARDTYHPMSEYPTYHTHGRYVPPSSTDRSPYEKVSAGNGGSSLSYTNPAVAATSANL
As to the kind of experiment: Plate-based MUC1-CD dimerization inhibition assay (primary screening). The format is biochemical. The procedure: FIG. 6—Schematic Illustration of Primary HTS Screening Assay for MUC1-CD Dimerization. MUC1-CD protein was coated on a 96 well plate and then incubated with Biotinylated MUC1-CD that binds to non-biotinylated MUC1-CD protein by dimer formation. Bound biotinylated MUC1-CD protein was detected by incubation with Streptavin-HRP+peroxidase substrate system.
FIGS. 11A-C—Identification of MUC1-CD dimerization inhibitors in a small molecule screen. (FIG. 11A) Schematic representation of the MUC1-C subunit with the 58 amino acid (aa) extracellular domain (ECD), the 28 aa transmembrane domain (TD) and the 72 aa cytoplasmic domain (CD; SEQ ID NO: 1). The sequence of MUC1-CD is included with highlighting of the CQC dimerization motif. (FIG. 11B) The assay for identification of MUC1-CD dimerization inhibitors is depicted with the following steps: (i) coating of MUC1-CD onto a microplate, (ii) adding soluble biotinylated MUC1-C and […] compound, and (iii) addition of streptavidin-HRP and then peroxide with conversion by HRP to a blue color. The signal is measured by EnVision and proportional to the amount of bound biotin-labeled MUC1-CD.
FIGS. 12A-D—Apigenin is an inhibitor of MUC1-CD dimerization in vitro and in cells. (FIG. 12A) Structures of apigenin and its analogue baicalein. Using the in vitro screening assay, dimerization of MUC1-CD was assessed in the presence of 100 μM apigenin or 100 μM baicalein each dissolved in 0.1% DMSO. The results (mean±SD of 3 determinations) are expressed as percentage of control dimerization in the presence of DMSO alone. (FIG. 12B) MUC1-CD dimerization was assessed in the presence of the indicated concentrations of apigenin in the in vitro screening assay. […] (FIG. 12C) Soluble MUC1-CD was incubated in the presence of 1% DMSO, 1 mM apigenin or 1 mM baicalein for 1 h at room temperature. Monomers and dimmers were assessed by electrophoresis in a non-reducing gel and immunoblotting with anti-MUC1-C. (FIG. 12D) 293 cells were transiently transfected to express an empty vector or GFP-MUC1-CD and Flag-MUC1-CD. At six hours after transfection, the cells were left untreated, and treated with 75 μM apigenin or baicalein for 3 days. Whole-cell lysates were precipitated with anti-Flag, and the precipitates were immunoblotted with the indicated antibodies.
Multi-well (96- or 384-well) plates are coated with non-biotinylated MUC1-CD, and biotinylated MUC1-CD is added to the plates to initiate MUC1-CD dimerization or oligomerization. A luminescent substrate for biotin binding is added to the plate, followed by washing. Resulting fluorescence is detected by luminescence detection at absorbance 405 nm. A complete schematic illustration of this assay is described in […]. Test compounds are added at multiple concentrations to the plates and, following incubation and washing, the plates are read for luminescent detection. The formation of MUC1-CD dimers is detected.
To develop a HTS assay for compounds that inhibit MUC1-CD dimerization, the inventors generated purified His-tagged MUC1-CD protein. They also generated a biotin-labeled His-tagged MUC1-CD protein using a standard biotinylation kit. Biotinylated and non-biotinylated proteins were purified through Nickel columns.
The inventors coated 96- or 384-well plates with non-biotinylated MUC1-CD protein and added biotinylated MUC1-CD protein to the plates to initiate MUC1-CD/MUC1-CD dimerization or oligomerization. They then added a substrate to the plate which will bind to the biotinylated protein (only at the dimer or oligomer state) and the resultant fluorescence was detected by luminescence detection at absorbance 405 nm. A complete schematic illustration of this assay is described in FIG. 6.
Individual compounds from the chemical libraries were then added at multiple concentrations (0.01 μM to 100 μM) to the plates and following incubation and washing, the plates were read by luminescence detection at […]. […]

The target in the next assay is T2, MUC1-C (Homo sapiens, UniProt P15941).
T2 sequence (P15941 1098-1255 limits assumed): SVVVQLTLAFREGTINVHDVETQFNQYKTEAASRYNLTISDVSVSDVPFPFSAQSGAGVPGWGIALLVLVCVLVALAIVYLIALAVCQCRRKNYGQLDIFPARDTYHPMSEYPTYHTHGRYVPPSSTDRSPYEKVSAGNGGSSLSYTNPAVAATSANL
As to the kind of experiment: Immunoblot of MUC1-C levels in MCF-10A cells (flavones). It is filed as cell-based. Also on record: endogenous in cells. The conditions noted are these: 50 to 100 μM, 3 d then additional 3 d. The procedure:
FIGS. 13A-D—Apigenin downregulates MUC1 and confers death of MCF-10A cells. (FIG. 13A) MCF-10A cells were treated with the indicated concentrations of apigenin and baicalein for 3 d, washed and then treated for an additional 3 d. Lysates were immunoblotted with the indicated antibodies. (FIG. 13B) MCF-10A cells were treated with the indicated concentrations apigenin (circles) and baicalein (squares) for 3 d. Viable cell number was determined by the MTS assay. The results (mean+SD of 3 determinations) are expressed as percentage of control growth in the presence of DMSO. (FIG. 13C) MCF-10A cells were treated with DMSO, 75 μM apigenin or 75 μM baicalein for 3 d. Lysates were subjected to immunoblotting with the indicated antibodies. (FIG. 13D) MCF-10A cells were treated with DMSO, 75 μM apigenin or 75 μM baicalein for 3 d, stained with propidium iodide and analyzed by flow cytometry.
Background: In western blotting, separated proteins are transferred to a membrane and probed.

Where [1] appears, read: 100 μM, compared to vehicle (DMSO).

Turning to `O=c1cc(-c2ccc(O)cc2)oc2cc(O)cc(O)c12` [Apigenin, 4′,5,7-trihydroxyflavone], the inhibition – broadly, the relative decrease from the control value, in per cent – at 100 µM against MUC1-CD (setting [1]) was roughly 80%. Also, at MUC1-CD (library of Table 1), the “initial library screen result” value is reported as “MUC1 dimerization inhibitory compounds”. For the same compound, at MUC1-CD (range of concentrations, read-out: 50% inhibition (IC50) of MUC1-CD dimerization), the IC50 (as a rule, the midpoint of a concentration-inhibition curve) came to 76 µM. The MUC1-C levels entry at MUC1-C is reported as “downregulation of MUC1-C levels”.

Regarding `O=c1cc(-c2ccccc2)oc2cc(O)c(O)c(O)c12` [Baicalein, 5,6,7-trihydroxyflavone, reference compound], the “inhibition of MUC1-CD dimerization” value on MUC1-CD (setting [1]) is listed as “little if any effect”. In addition, the MUC1-C levels entry on MUC1-C is “no apparent effect”.
